From PubChem BioAssay AID2060492 (Molecular Pharmacology Branch, DTP, NCI, 2025)

Test system: 695427-040-R-J1-PDC complex spheroids, viability percent T/C
Test: Anticancer human tumor 695427-040-R-J1-PDC patient-derived colon adenocarcinoma cell line growth inhibition [GQUAD]
Details: for IC50: curve of first compound; for viability, T/C: stronger effect = lower value
Outline: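 Tumor cells were grown as complex spheroids with HUVEC endothelial cells and mesenchymal stem cells as stroma. G-quadruplex stabilizers were combined with targeted agents over half-log dilutions from near the clinical Cmax, or from 10 microM.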

[1] = second compound 0.0316 µM, first compound 0.0316 µM
[2] = second compound 0.0316 µM, first compound 0.1 µM
[3] = second compound 0.0316 µM, first compound 0.316 µM
[4] = second compound 0.0316 µM, first compound 1 µM
[5] = second compound 0.0316 µM, first compound 3.16 µM
[6] = second compound 0.0316 µM, first compound 10 µM
[7] = second compound 0.1 µM, first compound 0.0316 µM
[8] = second compound 0.1 µM, first compound 0.1 µM
[9] = second compound 0.1 µM, first compound 0.316 µM
[10] = second compound 0.1 µM, first compound 1 µM
[11] = second compound 0.1 µM, first compound 3.16 µM
[12] = second compound 0.1 µM, first compound 10 µM
[13] = second compound 0.316 µM, first compound 0.0316 µM
[14] = second compound 0.316 µM, first compound 0.1 µM
[15] = second compound 0.316 µM, first compound 0.316 µM
[16] = second compound 0.316 µM, first compound 1 µM
[17] = second compound 0.316 µM, first compound 3.16 µM
[18] = second compound 0.316 µM, first compound 10 µM
[19] = second compound 1 µM, first compound 0.0316 µM
[20] = second compound 1 µM, first compound 0.1 µM
[21] = second compound 1 µM, first compound 0.316 µM
[22] = second compound 1 µM, first compound 1 µM
[23] = second compound 1 µM, first compound 3.16 µM
[24] = second compound 1 µM, first compound 10 µM
[25] = second compound 3.16 µM, first compound 0.0316 µM
[26] = second compound 3.16 µM, first compound 0.1 µM
[27] = second compound 3.16 µM, first compound 0.316 µM
[28] = second compound 3.16 µM, first compound 1 µM
[29] = second compound 3.16 µM, first compound 3.16 µM
[30] = second compound 3.16 µM, first compound 10 µM
[31] = second compound 10 µM, first compound 0.0316 µM
[32] = second compound 10 µM, first compound 0.1 µM
[33] = second compound 10 µM, first compound 0.316 µM
[34] = second compound 10 µM, first compound 1 µM
[35] = second compound 10 µM, first compound 3.16 µM
[36] = second compound 10 µM, first compound 10 µM
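Further: spheroids exposed to compounds for seven days before readout.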

SMILES: COc1cc(C2c3cc4c(cc3C(OC3OC5COC(C)OC5C(O)C3O)C3COC(=O)C23)OCO4)cc(OC)c1O (stereo not drawn) + Cc1cnc(CNC(=O)c2c(=O)c3ccc(N4CCCN(C)CC4)nc3n3c2sc2ccccc23)cn1
- IC50 (second compound 0.0316 µM): > 10 µM
- IC50 (second compound 0.1 µM): > 10 µM
- IC50 (second compound 0.316 µM): > 10 µM
- IC50 (second compound 1 µM): > 10 µM
- IC50 (second compound 3.16 µM): < 0.0316 µM
- IC50 (second compound 10 µM): < 0.0316 µM
- viability, T/C [1]: 87.3%
- viability, T/C [2]: 94.9%
- viability, T/C [3]: 92.7%
- viability, T/C [4]: 54.4%
- viability, T/C [5]: 64.1%
- viability, T/C [6]: 60.3%
- viability, T/C [7]: 84.8%
- viability, T/C [8]: 79.2%
- viability, T/C [9]: 70.3%
- viability, T/C [10]: 62.9%
- viability, T/C [11]: 75.5%
- viability, T/C [12]: 65.2%
- viability, T/C [13]: 71.3%
- viability, T/C [14]: 79.2%
- viability, T/C [15]: 70.5%
- viability, T/C [16]: 63%
- viability, T/C [17]: 73%
- viability, T/C [18]: 69.7%
- viability, T/C [19]: 47.5%
- viability, T/C [20]: 74.7%
- viability, T/C [21]: 71.3%
- viability, T/C [22]: 59.8%
- viability, T/C [23]: 70%
- viability, T/C [24]: 55.7%
- viability, T/C [25]: 33.4%
- viability, T/C [26]: 50.7%
- viability, T/C [27]: 46.3%
- viability, T/C [28]: 50%
- viability, T/C [29]: 50.9%
- viability, T/C [30]: 45.7%
- viability, T/C [31]: 38.8%
- viability, T/C [32]: 34.7%
- viability, T/C [33]: 41.8%
- viability, T/C [34]: 45.4%
- viability, T/C [35]: 56%
- viability, T/C [36]: 36.7%

SMILES: COc1cccc2c1C(=O)c1c(O)c3c(c(O)c1C2=O)CC(O)(C(=O)CO)CC3OC1CC(N)C(O)C(C)O1 (stereo not drawn) + Cc1cnc(CNC(=O)c2c(=O)c3ccc(N4CCCN(C)CC4)nc3n3c2sc2ccccc23)cn1
- IC50 (second compound 0.0316 µM): 1.51 µM
- IC50 (second compound 0.1 µM): 1.99 µM
- IC50 (second compound 0.316 µM): 1.92 µM
- IC50 (second compound 1 µM): 0.557 µM
- IC50 (second compound 3.16 µM): < 0.0316 µM
- IC50 (second compound 10 µM): < 0.0316 µM
- viability, T/C [1]: 96.5%
- viability, T/C [2]: 68%
- viability, T/C [3]: 70%
- viability, T/C [4]: 56.8%
- viability, T/C [5]: 38.7%
- viability, T/C [6]: 40.4%
- viability, T/C [7]: 86.3%
- viability, T/C [8]: 70.6%
- viability, T/C [9]: 85.3%
- viability, T/C [10]: 62.3%
- viability, T/C [11]: 45%
- viability, T/C [12]: 38.4%
- viability, T/C [13]: 72.2%
- viability, T/C [14]: 69.8%
- viability, T/C [15]: 64.9%
- viability, T/C [16]: 60.4%
- viability, T/C [17]: 42.4%
- viability, T/C [18]: 34.4%
- viability, T/C [19]: 60.2%
- viability, T/C [20]: 56.8%
- viability, T/C [21]: 59.6%
- viability, T/C [22]: 41%
- viability, T/C [23]: 34.2%
- viability, T/C [24]: 24.2%
- viability, T/C [25]: 43.8%
- viability, T/C [26]: 55.6%
- viability, T/C [27]: 48%
- viability, T/C [28]: 28.1%
- viability, T/C [29]: 28.9%
- viability, T/C [30]: 14.9%
- viability, T/C [31]: 32.1%
- viability, T/C [32]: 45%
- viability, T/C [33]: 43.5%
- viability, T/C [34]: 26.4%
- viability, T/C [35]: 20.2%
- viability, T/C [36]: 3.89%

SMILES: Nc1ccn(C2OC(CO)C(O)C2(F)F)c(=O)n1 (stereo not drawn) + Cc1cnc(CNC(=O)c2c(=O)c3ccc(N4CCCN(C)CC4)nc3n3c2sc2ccccc23)cn1
- IC50 (second compound 0.0316 µM): > 10 µM
- IC50 (second compound 0.1 µM): > 10 µM
- IC50 (second compound 0.316 µM): > 10 µM
- IC50 (second compound 1 µM): > 10 µM
- IC50 (second compound 3.16 µM): < 0.0316 µM
- IC50 (second compound 10 µM): < 0.0316 µM
- viability, T/C [1]: 91.9%
- viability, T/C [2]: 81.2%
- viability, T/C [3]: 73.6%
- viability, T/C [4]: 49.4%
- viability, T/C [5]: 55.1%
- viability, T/C [6]: 53.9%
- viability, T/C [7]: 93.8%
- viability, T/C [8]: 72.5%
- viability, T/C [9]: 65.9%
- viability, T/C [10]: 52%
- viability, T/C [11]: 56.4%
- viability, T/C [12]: 61.3%
- viability, T/C [13]: 70%
- viability, T/C [14]: 66%
- viability, T/C [15]: 61.7%
- viability, T/C [16]: 64.8%
- viability, T/C [17]: 64.2%
- viability, T/C [18]: 53.5%
- viability, T/C [19]: 60.6%
- viability, T/C [20]: 55.2%
- viability, T/C [21]: 54.9%
- viability, T/C [22]: 52.8%
- viability, T/C [23]: 56.4%
- viability, T/C [24]: 54.6%
- viability, T/C [25]: 42.7%
- viability, T/C [26]: 50.9%
- viability, T/C [27]: 54.3%
- viability, T/C [28]: 47.3%
- viability, T/C [29]: 46.4%
- viability, T/C [30]: 36%
- viability, T/C [31]: 35.1%
- viability, T/C [32]: 41.7%
- viability, T/C [33]: 40.1%
- viability, T/C [34]: 29%
- viability, T/C [35]: 36.7%
- viability, T/C [36]: 29.8%

SMILES: O=c1[nH]cc(F)c(=O)[nH]1 + Cc1cnc(CNC(=O)c2c(=O)c3ccc(N4CCCN(C)CC4)nc3n3c2sc2ccccc23)cn1
- IC50 (second compound 0.0316 µM): > 10 µM
- IC50 (second compound 0.1 µM): > 10 µM
- IC50 (second compound 0.316 µM): > 10 µM
- IC50 (second compound 1 µM): > 10 µM
- IC50 (second compound 3.16 µM): < 0.0316 µM
- IC50 (second compound 10 µM): < 0.0316 µM
- viability, T/C [1]: 108%
- viability, T/C [2]: 70.6%
- viability, T/C [3]: 70.8%
- viability, T/C [4]: 69.7%
- viability, T/C [5]: 76%
- viability, T/C [6]: 105%
- viability, T/C [7]: 94.2%
- viability, T/C [8]: 79.4%
- viability, T/C [9]: 72.4%
- viability, T/C [10]: 74.9%
- viability, T/C [11]: 94.2%
- viability, T/C [12]: 97.5%
- viability, T/C [13]: 83.6%
- viability, T/C [14]: 67.5%
- viability, T/C [15]: 80.9%
- viability, T/C [16]: 67.9%
- viability, T/C [17]: 86.4%
- viability, T/C [18]: 85.8%
- viability, T/C [19]: 77.8%
- viability, T/C [20]: 58%
- viability, T/C [21]: 63.8%
- viability, T/C [22]: 71.4%
- viability, T/C [23]: 80.1%
- viability, T/C [24]: 77.6%
- viability, T/C [25]: 44.9%
- viability, T/C [26]: 53.1%
- viability, T/C [27]: 59.9%
- viability, T/C [28]: 45.3%
- viability, T/C [29]: 72.2%
- viability, T/C [30]: 54.3%
- viability, T/C [31]: 28.3%
- viability, T/C [32]: 54.2%
- viability, T/C [33]: 48.8%
- viability, T/C [34]: 43.8%
- viability, T/C [35]: 54.6%
- viability, T/C [36]: 49.9%
